According to ChEMBL document CHEMBL1151657, “Flavonoids from the Wood of Salix caprea as Inhibitors of Wood-Destroying Fungi” (1985):

How the values were obtained:
Type in all cases: functional
Trichoderma viride [1] = test: Antimicrobial activity against Trichoderma viride after 60 mins by agar diffusion method
Coniophora puteana [2] = test: Antimicrobial activity against Coniophora puteana at 1% concentration after 60 mins by agar diffusion method
Trichoderma viride [3] = test: Antimicrobial activity against Trichoderma viride at 1% concentration after 60 mins by agar diffusion method
Sporotrichum [4] = test: Antimicrobial activity against Sporotrichum pulverulentum at 1% concentration after 60 mins by agar diffusion method
Coniophora puteana [5] = test: Antimicrobial activity against Coniophora puteana at 0.01% concentration after 60 mins by agar diffusion method
Sporotrichum [6] = test: Antimicrobial activity against Sporotrichum pulverulentum at 0.01% concentration after 60 mins by agar diffusion method
Coniophora puteana [7] = test: Antimicrobial activity against Coniophora puteana after 60 mins by agar diffusion method
Staphylococcus aureus = test: Antimicrobial activity against Staphylococcus aureus after 30 mins by agar diffusion method
[8] = tested on: Trichophyton mentagrophytes; test: Antimicrobial activity against Trichophyton mentagrophytes after 60 mins by agar diffusion method
Sporotrichum [9] = test: Antimicrobial activity against Sporotrichum pulverulentum after 60 mins by agar diffusion method
Enterococcus faecalis = test: Antimicrobial activity against Streptococcus faecalis after 30 mins by agar diffusion method
Escherichia coli = test: Antimicrobial activity against Escherichia coli after 30 mins by agar diffusion method

For `O=C1c2c(O)cc(O)cc2O[C@H](c2ccc(O)c(O)c2)[C@H]1O` [(+)-TAXIFOLIN], the “inhibition zone (IZ)” value (Trichoderma viride [1]) was 10 mm.

In the case of `O=C1C2CC=CCC2C(=O)N1SC(Cl)(Cl)Cl` (stereo unspecified) [CAPTAN], the “inhibition zone (IZ)” value (Coniophora puteana [2]) was over 25 mm, the “inhibition zone (IZ)” value (Trichoderma viride [3]) was 15 mm and the “inhibition zone (IZ)” value (Sporotrichum [4]) was over 25 mm. For the same molecule, the “inhibition zone (IZ)” value (Coniophora puteana [5]) was 10 mm and the “inhibition zone (IZ)” value (Sporotrichum [6]) was 15 mm.

`Oc1cc(O)c2c(c1)O[C@H](c1ccc(O)c(O)c1)[C@@H](O)C2` [CIANIDANOL] was tested, and the “inhibition zone (IZ)” value (Trichoderma viride [1]) was 10 mm.

In the case of `COc1ccc(C2Oc3cc(O)cc(O)c3C(=O)C2O)cc1` (stereo unspecified) [DIHYDROKAEMPFERIDE], the “inhibition zone (IZ)” value (Coniophora puteana [7]) was under 10 mm and the “inhibition zone (IZ)” value (Staphylococcus aureus) was 8 mm.

In the case of `O=C1c2c(O)cc(O)cc2O[C@H](c2ccc(O)cc2)[C@H]1O` [DIHYDROKAEMPFEROL], the “inhibition zone (IZ)” value (Coniophora puteana [7]) was 10 mm.

For `O=C1C[C@@H](c2ccc(O)cc2)Oc2cc(O)cc(O)c21` [NARINGENIN], the “inhibition zone (IZ)” value (Coniophora puteana [7]) was 10 mm, the “inhibition zone (IZ)” value (Trichoderma viride [1]) was 10 mm and the “inhibition zone (IZ)” value [8] was 11 mm. The “inhibition zone (IZ)” value (Sporotrichum [9]) was 10 mm, the “inhibition zone (IZ)” value (Enterococcus faecalis) was 10 mm and the “inhibition zone (IZ)” value (Escherichia coli) was 8 mm. The “inhibition zone (IZ)” value (Staphylococcus aureus) was 17.2 mm.

In the case of `O=[N+]([O-])c1c(Cl)c(Cl)c(Cl)c(Cl)c1Cl` [PENTACHLORONITROBENZENE], the “inhibition zone (IZ)” value (Coniophora puteana [7]) was 10 mm, the “inhibition zone (IZ)” value (Trichoderma viride [1]) was 10 mm and the “inhibition zone (IZ)” value (Sporotrichum [9]) was under 10 mm.

In the case of `O=C1C[C@@H](c2ccc(O)cc2)Oc2cc(O[C@@H]3O[C@H](CO)[C@@H](O)[C@H](O)[C@H]3O)cc(O)c21` [PRUNIN], the “inhibition zone (IZ)” value (Sporotrichum [9]) was 15 mm.
